{
  "source": "patent US6613718B2",
  "about": "“Aryl ether derivatives and processes for their preparation and herbicidal and desiccant compositions containing them” (Ishihara Sangyo Kaisha, Ltd., priority 2001, dated 2003)",
  "type_in_all_cases": "in vivo",
  "details_in_all_cases": "14 days after application",
  "key": {"[1]": {"system": "soybean (Glycine max L., var. Pella 86, SOY)", "assay": "Post-emerge greenhouse screening, crop safety (phytotoxicity rating)", "summary_of_the_method": "(§1)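 Greenhouse screen. Sowing preceded application by one day (pre-emergence) or 8-21 days (post-emergence). Doses spanned 15 to 1000 g ai/ha in acetone. Score at day 14: 0 no injury, 100 total kill.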"}, "[2]": {"system": "upland rice (Oryza sp., var.Tebonnet, RICE)", "assay": "Post-emerge greenhouse screening, crop safety (phytotoxicity rating)", "summary_of_the_method": "as §1"}, "[3]": {"system": "soybean (Glycine max L., var. Pella 86, SOY)", "assay": "Pre-emerge greenhouse screening, crop safety (phytotoxicity rating)", "summary_of_the_method": "as §1"}, "[4]": {"system": "upland rice (Oryza sp., var.Tebonnet, RICE)", "assay": "Pre-emerge greenhouse screening, crop safety (phytotoxicity rating)", "summary_of_the_method": "as §1"}, "[5]": {"system": "field corn (Zea mays L., var. Dekalb 535, CORN)", "assay": "Pre-emerge greenhouse screening, crop safety (phytotoxicity rating)", "summary_of_the_method": "as §1"}, "[6]": {"system": "ivyleaf morningglory (Ipomoea hederacea, IPOHE)", "assay": "Post-emerge greenhouse herbicide activity screening, phytotoxicity rating", "summary_of_the_method": "as §1"}, "[7]": {"system": "large crabgrass (Digitaria sanguinalis, DIGSA)", "assay": "Post-emerge greenhouse herbicide activity screening, phytotoxicity rating", "summary_of_the_method": "as §1"}, "[8]": {"system": "green foxtail (Setaria viridis, SETVI)", "assay": "Post-emerge greenhouse herbicide activity screening, phytotoxicity rating", "summary_of_the_method": "as §1"}, "[9]": {"system": "lambsquarters (Chenopodium album, CHEAL)", "assay": "Post-emerge greenhouse herbicide activity screening, phytotoxicity rating", "summary_of_the_method": "as §1"}, "[10]": {"system": "johnsongrass (Sorghum halepense, SORHA)", "assay": "Post-emerge greenhouse herbicide activity screening, phytotoxicity rating", "summary_of_the_method": "as §1"}, "[11]": {"system": "redroot pigweed (Amaranthus retroflexus, AMARE)", "assay": "Post-emerge greenhouse herbicide activity screening, phytotoxicity rating", "summary_of_the_method": "as §1"}, "[12]": {"system": "sicklepod (Cassia obtusifolia, CASOB)", "assay": "Post-emerge greenhouse herbicide activity screening, phytotoxicity rating", "summary_of_the_method": "as §1"}, "[13]": {"system": "velvetleaf (Abutilon theophrasti, ABUTH)", "assay": "Post-emerge greenhouse herbicide activity screening, phytotoxicity rating", "summary_of_the_method": "as §1"}, "[14]": {"system": "barnyardgrass (Echinochloa crus-galli, ECHCG)", "assay": "Post-emerge greenhouse herbicide activity screening, phytotoxicity rating", "summary_of_the_method": "as §1"}, "[15]": {"system": "common ragweed (Ambrosia artemisiifolia L., AMBEL)", "assay": "Post-emerge greenhouse herbicide activity screening, phytotoxicity rating", "summary_of_the_method": "as §1"}, "[16]": {"system": "field corn (Zea mays L., var. Dekalb 535, CORN)", "assay": "Post-emerge greenhouse screening, crop safety / corn selectivity (phytotoxicity rating)", "summary_of_the_method": "as §1"}, "[17]": {"system": "ivyleaf morningglory (Ipomoea hederacea, IPOHE)", "assay": "Pre-emerge greenhouse herbicide activity screening, phytotoxicity rating", "summary_of_the_method": "as §1"}, "[18]": {"system": "large crabgrass (Digitaria sanguinalis, DIGSA)", "assay": "Pre-emerge greenhouse herbicide activity screening, phytotoxicity rating", "summary_of_the_method": "as §1"}, "[19]": {"system": "green foxtail (Setaria viridis, SETVI)", "assay": "Pre-emerge greenhouse herbicide activity screening, phytotoxicity rating", "summary_of_the_method": "as §1"}, "[20]": {"system": "lambsquarters (Chenopodium album, CHEAL)", "assay": "Pre-emerge greenhouse herbicide activity screening, phytotoxicity rating", "summary_of_the_method": "as §1"}, "[21]": {"system": "johnsongrass (Sorghum halepense, SORHA)", "assay": "Pre-emerge greenhouse herbicide activity screening, phytotoxicity rating", "summary_of_the_method": "as §1"}, "[22]": {"system": "redroot pigweed (Amaranthus retroflexus, AMARE)", "assay": "Pre-emerge greenhouse herbicide activity screening, phytotoxicity rating", "summary_of_the_method": "as §1"}, "[23]": {"system": "sicklepod (Cassia obtusifolia, CASOB)", "assay": "Pre-emerge greenhouse herbicide activity screening, phytotoxicity rating", "summary_of_the_method": "as §1"}, "[24]": {"system": "velvetleaf (Abutilon theophrasti, ABUTH)", "assay": "Pre-emerge greenhouse herbicide activity screening, phytotoxicity rating", "summary_of_the_method": "as §1"}, "[25]": {"system": "barnyardgrass (Echinochloa crus-galli, ECHCG)", "assay": "Pre-emerge greenhouse herbicide activity screening, phytotoxicity rating", "summary_of_the_method": "as §1"}, "[26]": {"system": "common ragweed (Ambrosia artemisiifolia L., AMBEL)", "assay": "Pre-emerge greenhouse herbicide activity screening, phytotoxicity rating", "summary_of_the_method": "as §1"}},
  "data": [
    {"smiles": "Cn1c(=S)n(C)c(=O)n(-c2cc(Oc3ccccc3N)c(Cl)cc2F)c1=O", "note": "[Compound 2-18]", "values": [
      {"measurement": "SOY crop damage, phytotoxicity rating (0-100 scale)", "setting": "[1]; 125 g ai/ha", "value": 0},
      {"measurement": "SOY crop damage, phytotoxicity rating (0-100 scale)", "setting": "[1]; 250 g ai/ha", "value": 0},
      {"measurement": "RICE crop damage, phytotoxicity rating (0-100 scale)", "setting": "[2]; 125 g ai/ha", "value": 0},
      {"measurement": "RICE crop damage, phytotoxicity rating (0-100 scale)", "setting": "[2]; 250 g ai/ha", "value": 0},
      {"measurement": "SOY crop damage, phytotoxicity rating (0-100 scale)", "setting": "[3]; 125 g ai/ha", "value": 0},
      {"measurement": "SOY crop damage, phytotoxicity rating (0-100 scale)", "setting": "[3]; 250 g ai/ha", "value": 0},
      {"measurement": "RICE crop damage, phytotoxicity rating (0-100 scale)", "setting": "[4]; 125 g ai/ha", "value": 0},
      {"measurement": "RICE crop damage, phytotoxicity rating (0-100 scale)", "setting": "[4]; 250 g ai/ha", "value": 0},
      {"measurement": "CORN crop damage, phytotoxicity rating (0-100 scale)", "setting": "[5]; 125 g ai/ha", "value": 0},
      {"measurement": "CORN crop damage, phytotoxicity rating (0-100 scale)", "setting": "[5]; 250 g ai/ha", "value": 5},
      {"measurement": "IPOHE phytotoxicity rating (0-100 scale)", "setting": "[6]; 125 g ai/ha", "value": 0},
      {"measurement": "IPOHE phytotoxicity rating (0-100 scale)", "setting": "[6]; 250 g ai/ha", "value": 0},
      {"measurement": "DIGSA phytotoxicity rating (0-100 scale)", "setting": "[7]; 125 g ai/ha", "value": 0},
      {"measurement": "DIGSA phytotoxicity rating (0-100 scale)", "setting": "[7]; 250 g ai/ha", "value": 0},
      {"measurement": "SETVI phytotoxicity rating (0-100 scale)", "setting": "[8]; 125 g ai/ha", "value": 50},
      {"measurement": "SETVI phytotoxicity rating (0-100 scale)", "setting": "[8]; 250 g ai/ha", "value": 50},
      {"measurement": "CHEAL phytotoxicity rating (0-100 scale)", "setting": "[9]; 125 g ai/ha", "value": 70},
      {"measurement": "CHEAL phytotoxicity rating (0-100 scale)", "setting": "[9]; 250 g ai/ha", "value": 70},
      {"measurement": "SORHA phytotoxicity rating (0-100 scale)", "setting": "[10]; 125 g ai/ha", "value": 0},
      {"measurement": "SORHA phytotoxicity rating (0-100 scale)", "setting": "[10]; 250 g ai/ha", "value": 0},
      {"measurement": "AMARE phytotoxicity rating (0-100 scale)", "setting": "[11]; 125 g ai/ha", "value": 80},
      {"measurement": "AMARE phytotoxicity rating (0-100 scale)", "setting": "[11]; 250 g ai/ha", "value": 80},
      {"measurement": "CASOB phytotoxicity rating (0-100 scale)", "setting": "[12]; 125 g ai/ha", "value": 0},
      {"measurement": "CASOB phytotoxicity rating (0-100 scale)", "setting": "[12]; 250 g ai/ha", "value": 0},
      {"measurement": "ABUTH phytotoxicity rating (0-100 scale)", "setting": "[13]; 125 g ai/ha", "value": 0},
      {"measurement": "ABUTH phytotoxicity rating (0-100 scale)", "setting": "[13]; 250 g ai/ha", "value": 40},
      {"measurement": "ECHCG phytotoxicity rating (0-100 scale)", "setting": "[14]; 125 g ai/ha", "value": 0},
      {"measurement": "ECHCG phytotoxicity rating (0-100 scale)", "setting": "[14]; 250 g ai/ha", "value": 35},
      {"measurement": "AMBEL phytotoxicity rating (0-100 scale)", "setting": "[15]; 125 g ai/ha", "value": 0},
      {"measurement": "AMBEL phytotoxicity rating (0-100 scale)", "setting": "[15]; 250 g ai/ha", "value": 0},
      {"measurement": "CORN crop damage, phytotoxicity rating (0-100 scale)", "setting": "[16]; 125 g ai/ha", "value": 0},
      {"measurement": "CORN crop damage, phytotoxicity rating (0-100 scale)", "setting": "[16]; 250 g ai/ha", "value": 0},
      {"measurement": "IPOHE phytotoxicity rating (0-100 scale)", "setting": "[17]; 125 g ai/ha", "value": 0},
      {"measurement": "IPOHE phytotoxicity rating (0-100 scale)", "setting": "[17]; 250 g ai/ha", "value": 10},
      {"measurement": "DIGSA phytotoxicity rating (0-100 scale)", "setting": "[18]; 125 g ai/ha", "value": 75},
      {"measurement": "DIGSA phytotoxicity rating (0-100 scale)", "setting": "[18]; 250 g ai/ha", "value": 80},
      {"measurement": "SETVI phytotoxicity rating (0-100 scale)", "setting": "[19]; 125 g ai/ha", "value": 60},
      {"measurement": "SETVI phytotoxicity rating (0-100 scale)", "setting": "[19]; 250 g ai/ha", "value": 95},
      {"measurement": "CHEAL phytotoxicity rating (0-100 scale)", "setting": "[20]; 125 g ai/ha", "value": 100},
      {"measurement": "CHEAL phytotoxicity rating (0-100 scale)", "setting": "[20]; 250 g ai/ha", "value": 100},
      {"measurement": "SORHA phytotoxicity rating (0-100 scale)", "setting": "[21]; 125 g ai/ha", "value": 35},
      {"measurement": "SORHA phytotoxicity rating (0-100 scale)", "setting": "[21]; 250 g ai/ha", "value": 75},
      {"measurement": "AMARE phytotoxicity rating (0-100 scale)", "setting": "[22]; 125 g ai/ha", "value": 99},
      {"measurement": "AMARE phytotoxicity rating (0-100 scale)", "setting": "[22]; 250 g ai/ha", "value": 100},
      {"measurement": "CASOB phytotoxicity rating (0-100 scale)", "setting": "[23]; 125 g ai/ha", "value": 20},
      {"measurement": "CASOB phytotoxicity rating (0-100 scale)", "setting": "[23]; 250 g ai/ha", "value": 35},
      {"measurement": "ABUTH phytotoxicity rating (0-100 scale)", "setting": "[24]; 125 g ai/ha", "value": 55},
      {"measurement": "ABUTH phytotoxicity rating (0-100 scale)", "setting": "[24]; 250 g ai/ha", "value": 60},
      {"measurement": "ECHCG phytotoxicity rating (0-100 scale)", "setting": "[25]; 125 g ai/ha", "value": 35},
      {"measurement": "ECHCG phytotoxicity rating (0-100 scale)", "setting": "[25]; 250 g ai/ha", "value": 60},
      {"measurement": "AMBEL phytotoxicity rating (0-100 scale)", "setting": "[26]; 125 g ai/ha", "value": 50},
      {"measurement": "AMBEL phytotoxicity rating (0-100 scale)", "setting": "[26]; 250 g ai/ha", "value": 55}
    ]}
  ]
}
